Where a name gives a salt, the structure may show the parent alone.
SMILES	melting point
CCCC(O)c1ccc(-c2cc3ccccc3c(N3CCN(CC)CC3)n2)cc1 (stereo not drawn) (as salt: oxalate) [Example 21, 1-(4-ethylpiperazin-1-yl)-3-[4-(1-hydroxybutyl)phenyl]isoquinoline oxalate]	198.5 to 199.5 °C
CCN1CCN(c2nc(-c3ccc(CCC(C)O)cc3)cc3ccccc23)CC1 (stereo not drawn) (as salt: oxalate) [Example 22, 1-(4-ethylpiperazin-1-yl)-3-[4-(3-hydroxybutyl)phenyl]isoquinoline oxalate]	193 to 194 °C
CCN1CCN(c2nc(C(C)c3ccc(OC)cc3)cc3ccccc23)CC1 (stereo not drawn) (as salt: oxalate) [Example 102, 3-[α-Methyl-(4-methoxybenzyl)]-1-(4-ethylpiperazin-1-yl)isoquinoline Oxalate]	86 to 88 °C
CCN1CCN(c2nc(C(O)c3ccc(OC)cc3)cc3ccccc23)CC1 (stereo not drawn) (as salt: oxalate) [Example 104, 3-[α-Hydroxy-(4-methoxybenzyl)]-1-(4-ethylpiperazin-1-yl)isoquinoline Oxalate]	95 to 97 °C
CCN1CCN(c2nc(C(=O)c3ccccc3OC)cc3ccccc23)CC1 (as salt: oxalate) [Example 111, 3-(2-Methoxyphenylcarbonyl)-1-(4-ethylpiperazin-1-yl)isoquinoline Oxalate]	153 to 156 °C
CCN1CCN(c2nc(C(=O)c3ccc(OC)cc3)cc3ccccc23)CC1 (as salt: oxalate) [Example 112, 3-(4-Methoxyphenylcarbonyl)-1-(4-ethylpiperazin-1-yl)isoquinoline Oxalate]	176 to 179 °C
CCN1CCN(c2nc(C3CCc4ccc(OC)cc43)cc3ccccc23)CC1 (stereo not drawn) (as salt: oxalate) [Example 114, 3-(6-Methoxyindan-1-yl)-1-(4-ethylpiperazin-1-yl)isoquinoline Oxalate]	122 to 124 °C
CCN1CCN(c2nc(C3=CCCc4cc(OC)ccc43)cc3ccccc23)CC1 (as salt: oxalate) [Example 117, 3-(7-Methoxy-1,2-dihydronaphthalen-4-yl)-1-(4-ethylpiperazin-1-yl)isoquinoline Oxalate]	112 to 114 °C
CCN1CCN(c2nc(-c3ccc(C4=CCOCC4)nc3)cc3ccccc23)CC1 (as salt: oxalate) [Example 155, 3-[2-(5,6-dihydro-2H-pyran-4-yl)pyridin-5-yl]-1-(4-ethylpiperazin-1-yl)isoquinoline oxalate]	156 to 159 °C
CCN1CCN(c2nc(-c3ccc(C4CCOCC4)nc3)cc3ccccc23)CC1 (as salt: oxalate) [Example 156, 3-[2-(tetrahydropyran-4-yl)pyridin-5-yl]-1-(4-ethylpiperazin-1-yl)isoquinoline oxalate]	158 to 160 °C
CCN1CCN(c2nc(C#Cc3ccccn3)cc3ccccc23)CC1 (as salt: oxalate) [Example 179, 1-(1-Ethylpiperazin-4-Yl)-3-(2-Pyridyl)Ethynylisoquinoline Oxalate]	148 to 154 °C
CCN1CCN(c2nc(C#CCN3CCOCC3)cc3ccccc23)CC1 (as salt: oxalate) [Example 180, 3-[3-(4-Morpholinyl)-1-Propynyl]-1-(4-Ethylpiperazin-1-Yl)Isoquinoline Oxalate]	231 to 233 °C
CCN1CCN(c2nc(C#CCc3ccccc3)cc3ccccc23)CC1 (as salt: oxalate) [Example 181, 1-(1-Ethylpiperazin-4-Yl)-3-(3-Phenyl-1-Propynyl)Isoquinoline Oxalate]	180 to 183 °C
CCN1CCN(c2nc(C#CC(=O)c3ccccc3)cc3ccccc23)CC1 (as salt: oxalate) [Example 184, 1-(1-Ethylpiperazin-4-Yl)-3-Benzoylethynylisoquinoline Oxalate]	161 to 163 °C
CCN1CCN(c2nc(/C=C/c3ccc(CS(C)(=O)=O)cc3)cc3ccccc23)CC1 (as salt: oxalate) [Example 203, 3-[(E)-2-(4-Methylsulfonylmethylphenyl)Ethenyl]-1-(4-Ethylpiperazin-1-Yl)Isoquinoline Oxalate]	245 to 247 °C
CCN1CCN(c2nc(/C=C/c3cccc(N4CCOCC4)c3)cc3ccccc23)CC1 (as salt: oxalate) [Example 204, 3-{(E)-2-[3-(4-Morpholinyl)Phenyl]Ethenyl}-1-(4-Ethylpiperazin-1-Yl)Isoquinoline Oxalate]	180 to 182 °C
CCN1CCN(c2nc(/C=C/c3ccc(N4CCOCC4)cc3)cc3ccccc23)CC1 (as salt: oxalate) [Example 205, 3-{(E)-2-[4-(4-Morpholinyl)Phenyl]Ethenyl}-1-(4-Ethylpiperazin-1-Yl)Isoquinoline Oxalate]	248 to 250 °C
CCN1CCN(c2nc(/C=C(\C)c3ccc(N4CCOCC4)cc3)cc3ccccc23)CC1 (as salt: oxalate) [Example 206, 3-{(E)-2-Methyl-2-[4-(4-Morpholinyl)Phenyl]Ethenyl}-1-(4-Ethylpiperazin-1-Yl)Isoquinoline Oxalate]	266 to 267 °C

SMILES	melting point
CCN1CCN(c2nc(/C=C(\C)c3cccc(N4CCOCC4)c3)cc3ccccc23)CC1 (as salt: oxalate) [Example 207, 3-{(E)-2-Methyl-2-[3-(4-Morpholinyl)Phenyl]Ethenyl}-1-(4-Ethylpiperazin-1-Yl)Isoquinoline Oxalate]	190 to 192 °C
CCN1CCN(c2nc(/C=C/c3ccc(N4CCOCC4)nn3)cc3ccccc23)CC1 (as salt: oxalate) [Example 214, 3-{(E)-2-[3-(4-Morpholinyl)Pyridazin-6-Yl]Ethenyl}-1-(4-Ethylpiperazin-1-Yl)Isoquinoline Oxalate]	88 to 90 °C
CCN1CCN(c2nc(/C=C/c3cc(N4CCOCC4)ncn3)cc3ccccc23)CC1 (as salt: oxalate) [Example 215, 3{(E)-2-[4-(4-morpholinyl)pyrimidin-6-yl]ethenyl}-1-(4-ethylpiperazin-1-yl)isoquinoline oxalate]	130 to 134 °C
CCN1CCN(c2nc(/C=C/c3cncc(N4CCOCC4)n3)cc3ccccc23)CC1 (as salt: oxalate) [Example 216, 3-{(E)-2-[2-(4-morpholinyl)pyrazin-6-yl]ethenyl}-1-(4-ethylpiperazin-1-yl)isoquinoline oxalate]	173 to 175 °C
CCN1CCN(c2nc(-c3ccc(CCCO)c(Cl)c3)cc3ccsc23)CC1 (as salt: oxalate) [Example 257, 5-[4-(3-hydroxypropyl)-3-chlorophenyl]-7-(4-ethylpiperazin-1-yl)thieno[2,3-c]pyridine Oxalate]	114 to 116 °C
CCN1CCN(c2nc(-c3ccc(OC)c(CCCO)c3)cc3ccsc23)CC1 (as salt: oxalate) [Example 261, 5-[3-(3-hydroxypropyl)-4-methoxyphenyl]-7-(4-ethylpiperazin-1-yl)thieno[2,3-c]pyridine Oxalate]	98 to 102 °C
CCN1CCN(c2nc(-c3ccc(CCCO)c(C#N)c3)cc3ccsc23)CC1 (as salt: oxalate) [Example 262, 5-[4-(3-hydroxypropyl)-3-cyanophenyl]-7-(4-ethylpiperazin-1-yl)thieno[2,3-c]pyridine Oxalate]	132 to 134 °C
CCN1CCN(c2nc(-c3ccc(OCCO)nc3)cc3ccsc23)CC1 (as salt: oxalate) [Example 268, 5-[2-(2-hydroxyethoxy)pyridin-5-yl]-7-(4-ethylpiperazin-1-yl)thieno[2,3-c]pyridine Oxalate]	124 to 125 °C
OCCOc1ccc(-c2cc3ccsc3c(N3CCN(CCO)CC3)n2)cc1 (as salt: oxalate) [Example 275, 5-[4-(2-hydroxyethoxy)phenyl]-7-[4-(2-hydroxyethyl)piperazin-1-yl]thieno[3,2-c]pyridine oxalate]	105 to 107 °C
CCN1CCN(c2nc(-c3ccc(OCCO)cc3)cc3cscc23)CC1 (as salt: oxalate) [Example 278, 4-(4-ethylpiperazin-1-yl)-6-[4-(2-hydroxyethoxy)phenyl]thieno-[3,4-c]pyridine oxalate]	130 °C (dec.)
CCN1CCN(c2nc(-c3ccc(C(C)O)cc3)cc3sccc23)CC1 (stereo not drawn) (as salt: oxalate) [Example 281, 4-(4-ethylpiperazin-1-yl)-6-[4-(1-hydroxyethyl)phenyl]thieno[3,2-c]pyridine oxalate]	134 to 135 °C
CCC(O)c1ccc(-c2cc3sccc3c(N3CCN(CC)CC3)n2)cc1 (stereo not drawn) (as salt: oxalate) [Example 282, 4-(4-ethylpiperazin-1-yl)-6-[4-(1-hydroxypropyl)phenyl]thieno-[3,2-c]pyridine oxalate]	130 to 131 °C
CCN1CCN(c2nc(-c3ccc(OCCO)cc3)cc3ccoc23)CC1 (as salt: oxalate) [Example 301, 7-(1-Ethylpiperazin-4-yl)-5-[4-(2-hydroxyethoxy)phenyl]furo[2,3-c]pyridine oxalate]	145 to 152 °C
CCN1CCN(Cc2nc(-c3ccc(OC)cc3)cc3ccccc23)CC1 (as salt: oxalate) [Example 328, 3-(4-methoxyphenyl)-1-(4-ethylpiperazin-1-yl)methylisoquinoline oxalate]	219 to 221 °C
CCN1CCN(c2nc(Sc3ccccc3)cc3ccccc23)CC1 (as salt: oxalate) [Example 374, 1-(4-ethylpiperazin-1-yl)-3-(phenylthio)isoquinoline oxalate]	181.5 to 183 °C
CCN1CCN(c2nc(-c3ccc(CC(C)O)cc3)cc3ccccc23)CC1 (stereo not drawn) (as salt: oxalate) [Example 376, 1-(4-ethylpiperazin-1-yl)-3-[4-(2-hydroxypropyl)phenyl]isoquinoline oxalate]	174 to 176 °C
CCN1CCN(c2nc(-c3ccc(CC(C)(C)O)cc3)cc3ccccc23)CC1 (as salt: oxalate) [Example 377, 1-(4-Ethylpiperazin-1-yl)-3-[4-(2-Hydroxy-2-Methylpropyl)Phenyl]Isoquinoline Oxalate]	184 to 186 °C (dec.)
CCN1CCN(c2nc(Sc3ccccn3)cc3ccccc23)CC1 (as salt: oxalate) [Example 378, 1-(4-Ethylpiperazin-1-yl)-3-(2-Pyridylthio)Isoquinoline Oxalate]	178 to 181 °C (dec.)
